Measurements published in the Kinase Knowledgebase extract (Sharma et al. 2016).

The compounds below were run against CDK2 (UniProt P24941) (assay: Enzyme Assay).

Question: For `COc1ccc(CNc2nc(NCc3cccnc3)nc3c2ncn3C(C)C)cc1`, which IC50 is on record?
Answer: 1000 nM

Question: How did the IC50 turn out when `COc1ccc(CNc2nc(NCC(O)CN)nc3c2ncn3C(C)C)cc1` (stereo not given) was run?
Answer: 1000 nM

Question: `COc1ccc(CNc2nc(NCC(O)c3c[nH]c4ccccc34)nc3c2ncn3C(C)C)cc1` (stereo not given) was tested. Which IC50 did it give?
Answer: 2000 nM

Question: How did the IC50 turn out when `CC(C)Cn1cnc2c(NCc3cccnc3)nc(Cl)nc21` was run?
Answer: > 5000 nM

Question: `CC(C)n1cnc2c(NCCCc3ccccc3)nc(N(CCO)CCO)nc21` was tested. Which IC50 did it give?
Answer: 5000 nM

Question: `COc1ccc(CNc2nc(NCC(CO)CCO)nc3c2ncn3C(C)C)cc1` (stereo not given) was tested. Which IC50 did it give?
Answer: > 5000 nM

Question: `COc1ccc(CNc2nc(NCCCC#N)nc3c2ncn3C(C)C)cc1` was tested. Which IC50 did it give?
Answer: 1000 nM

Question: With `Clc1nc(NCc2ccncc2)c2ncn(C3CCCC3)c2n1` as the compound, how does the IC50 read?
Answer: > 5000 nM

Question: `CC(C)n1cnc2c(NCc3ccc(-c4ccccc4)cc3)nc(NCCO)nc21` was tested. Which IC50 did it give?
Answer: 3000 nM

Question: For `CNc1ccccc1C1CCCN1c1nc(NCc2ccc(OC)cc2)c2ncn(C(C)C)c2n1` (stereo not given), which IC50 is on record?
Answer: > 5000 nM

Question: For `COC(=O)c1ccc(CNc2nc(Cl)nc3[nH]cnc23)cc1`, which IC50 is on record?
Answer: > 5000 nM

Question: With `CC(C)n1cnc2c(NCc3ccc(-c4ccccc4)cc3)nc(N(C)c3ccco3)nc21` as the compound, how does the IC50 read?
Answer: > 5000 nM

Question: For `CC(C)n1cnc2c(NCC3CC3)nc(N(CCO)CCO)nc21`, which IC50 is on record?
Answer: 2000 nM

Question: Which IC50 does the source give for `CC(C)n1cnc2c(NCc3ccc(C4C=CC=CC4=S)cc3)nc(N(CCO)CCO)nc21` (stereo not given) here?
Answer: 600 nM

Question: With `COc1ccc(CNc2nc(N)nc3c2ncn3C(C)C)cc1` as the compound, how does the IC50 read?
Answer: 1000 nM
